Tested on: phospholipase A2
Conditions: SUVs with 18:0,18:2-PC 80/20 mol %, Tris pH 8.8, 20 min

Structure (SMILES): CCCCCCCCCCCCCCCCCC(=O)OCC(COP(=O)([O-])OCC[N+](C)(C)C)OC(=O)CCCc1ccc(N(CCCl)CCCl)cc1 (stereo not shown) [18:0, Chlorambucil-PC]
- hydrolysis by phospholipase A2: total

From US20040052837A1, “Lipid conjugated anti-cancer drugs and methods of use thereof” (priority 2002, published 2004)
